Source: patent US20230129326A1, “METHODS TO PREVENT SARS-COV-2 INFECTION AND TREAT COVID-19” (priority 2020, published 2023)
Values after ≈ are worked out from the molar mass of the structure shown. “Also recorded” adds a separate entry of the source. Where two headings read alike, the source gives them in different places.

Key:
[1] = target: ACE2 (Homo sapiens, UniProt Q9BYF1); type: biochemical
[2] = tested on: SARS-CoV-2 infection; assay: Drug usage versus SARS-CoV-2 infection in UCSF Health population; type: in vivo; conditions: for Odds ratio: drug usage vs SARS-CoV-2 infection; for correlation of usage with protection from SARS-CoV-2 infection: statistically significant
[3] = tested on: SARS-CoV-2 virus (isolate USA-WA1/2020); assay: microbe, parasite or virus in culture; type: cell-based
[4] = target: ACE2/SARS spike protein interaction (Homo sapiens, UniProt Q9BYF1); type: cell-based, SARS-CoV
ACE2/SARS spike protein interaction, sequence (Q9BYF1 18-805 limits assumed): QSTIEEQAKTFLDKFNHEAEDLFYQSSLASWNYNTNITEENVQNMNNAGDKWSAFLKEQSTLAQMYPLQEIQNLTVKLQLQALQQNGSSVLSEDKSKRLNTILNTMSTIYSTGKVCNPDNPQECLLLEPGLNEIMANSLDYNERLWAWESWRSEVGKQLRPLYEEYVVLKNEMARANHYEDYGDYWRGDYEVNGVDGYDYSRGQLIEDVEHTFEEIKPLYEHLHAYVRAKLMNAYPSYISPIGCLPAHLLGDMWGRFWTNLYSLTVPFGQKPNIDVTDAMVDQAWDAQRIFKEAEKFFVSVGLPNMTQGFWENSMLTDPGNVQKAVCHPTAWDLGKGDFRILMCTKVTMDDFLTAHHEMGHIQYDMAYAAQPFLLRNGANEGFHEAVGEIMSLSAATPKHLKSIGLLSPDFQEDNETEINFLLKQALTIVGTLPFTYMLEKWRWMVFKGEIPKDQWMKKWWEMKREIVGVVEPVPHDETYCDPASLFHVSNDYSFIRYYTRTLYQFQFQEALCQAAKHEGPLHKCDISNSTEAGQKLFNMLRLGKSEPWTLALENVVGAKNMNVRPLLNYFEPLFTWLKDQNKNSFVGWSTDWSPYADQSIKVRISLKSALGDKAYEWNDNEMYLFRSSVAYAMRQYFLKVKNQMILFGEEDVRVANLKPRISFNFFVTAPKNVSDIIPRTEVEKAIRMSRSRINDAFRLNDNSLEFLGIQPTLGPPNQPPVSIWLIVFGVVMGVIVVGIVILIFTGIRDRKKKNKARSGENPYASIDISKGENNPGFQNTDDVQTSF

[5] = tested on: SARS-CoV-2; assay: N protein copies by qPCR in VeroE6 cells infected with SARS-CoV-2; type: cell-based; conditions: VeroE6, MOI 0.01, 48 h; drug by itself
[6] = tested on: SARS-CoV-2 isolate USA-UF-1/2020; assay: microbe, parasite or virus in culture; type: cell-based; conditions: for EC50: Severe acute respiratory syndrome coronavirus 2, Vero C1008, read-out: EC50, 50% inhibition of SARS-CoV-2 isolate USA-UF-1/2020 infection of Vero E6 cells
[7] = Cytotoxicity (50% cytotoxic concentration); type: cell-based
[8] = tested on: SARS-CoV-2 isolate USA-UF-1/2020; type: cell-based
[9] = set-up: species or system mice; conditions: mouse, in vivo
[10] = tested on: SARS-CoV-2 Strain WA-1; set-up: species or system hACE2-transgenic mice; conditions: mouse, in vivo

ACE2, sequence (Q9BYF1 18-805): as the sequence (Q9BYF1 18-805 limits assumed) above

CCN(CC)CCCN(c1ccccc1)C1Cc2ccccc2C1 [Aprindine, aprindine]
ACE2 binding activity (velocity of ACE2) [1]: Inhibited velocity of ACE2

CN(C)CCC(c1ccc(Br)cc1)c1ccccn1 (centres unmarked) [Brompheniramine]
Odds ratio [2]: 0.76

CN(C)CC/C=C1/c2ccccc2Sc2ccc(Cl)cc21.Cl [Minithixen, Chlorprothixene hydrochloride]
ACE2 binding activity (velocity of ACE2) ([1]; hydrochloride): Inhibited velocity of ACE2

O=c1c(O)c(-c2cc(O)c(O)c(O)c2)oc2cc(O)cc(O)c12 [Myricetin, myricetin]
in vitro activity against SARS-CoV-2 [3]: observed to have in vitro activity

NCCNCCN1CC1 [N-(2-aminoethyl)-1 aziridine-ethanamine, N-(2-aminoethyl)-1-aziridine-ethanamine]
ACE2 binding activity (velocity of ACE2) [1]: Inhibits velocity of ACE2 | ACE2/SARS spike protein interaction [4]: inhibited ACE2 interactions with SARS-CoV spike protein; also recorded: Inhibits ACE2/SARS spike protein interaction | SARS S-glycoprotein-mediated cell fusion [4]: effective in blocking the SARS coronavirus spike protein-mediated cell fusion; also recorded: inhibits SARS S-glycoprotein-mediated cell fusion; also recorded: inhibition of SARS S-glycoprotein-mediated cell fusion

CC(CN1c2ccccc2Sc2ccccc21)N(C)C (centres unmarked) [Promethazine]
reduction of viral replication in vitro [5]: ~100 ×

NCCNCCNCCN [Triethylenetetramine, triethylenetetramine]
ACE2 binding activity (velocity of ACE2) [1]: Inhibits velocity of ACE2 | ACE2/SARS spike protein interaction [4]: Inhibits ACE2/SARS spike protein interaction

CN1CCCC(n2nc(Cc3ccc(Cl)cc3)c3ccccc3c2=O)CC1 (centres unmarked) [azelastine]
Odds ratio [2]: 0.16 | correlation of usage with protection from SARS-CoV-2 infection [2]: correlated with protection from SARS-CoV-2 infection | direct antiviral activity against SARS-CoV-2 isolates in vitro [6]: exhibited direct antiviral activity | EC50 [6]: 2.24 µg/mL (≈ 5.87 µM)

CN(C)CCC(c1ccc(Cl)cc1)c1ccccn1 (centres unmarked) [chlorpheniramine]
Odds ratio [2]: 0.23 | correlation of usage with protection from SARS-CoV-2 infection [2]: correlated with protection from SARS-CoV-2 infection

N=C(N)c1ccc(/N=N/Nc2ccc(C(=N)N)cc2)cc1 [diminazene]
ACE2 binding activity (velocity of ACE2) [1]: Enhanced velocity of ACE2

CN(C)CCOC(c1ccccc1)c1ccccc1 [diphenhydramine]
direct antiviral activity against SARS-CoV-2 isolates in vitro [6]: exhibited direct antiviral activity

OCCOCCN1CCN(C(c2ccccc2)c2ccc(Cl)cc2)CC1 (centres unmarked) [hydroxyzine]
ACE2 binding activity (velocity of ACE2) [1]: inhibited ACE2 activity; also recorded: Inhibited velocity of ACE2 | viral burden [3]: lowered viral burden to below the level of detection | EC50 ([3]; Severe acute respiratory syndrome coronavirus 2, Vero C1008, 48 h, read-out: EC50, viral burden by plaque assay): 11.3 µg/mL (≈ 30.1 µM) | EC50 ([3]; Severe acute respiratory syndrome coronavirus 2, Vero C1008, read-out: anti-SARS-CoV-2 activity EC50): 11.3 µg/mL (≈ 30.1 µM) | Odds ratio [2]: 0.76 | 50% cytotoxic concentration [7]: approximately 50 μg/ml | level of SARS-CoV-2 mRNA expressed in the cells [8]: significantly lowered | direct antiviral activity against SARS-CoV-2 isolates in vitro [6]: exhibited direct antiviral activity | EC50 [6]: 15.3 µg/mL (≈ 40.8 µM)

CC(CCc1ccccc1)NCC(O)c1ccc(O)c(C(N)=O)c1 (centres unmarked) [labetalol]
ACE2 binding activity (velocity of ACE2) [1]: Enhanced velocity of ACE2

LQSYGFQPTNGV peptide
immune response in mice [9]: induced a strong immune response | lungs at gross necropsy [10]: some damage/abscesses in the lungs | survival at 5 dpi [10]: survived 5 dpi | viral load in the lungs (plaque forming units) [10]: low plaque forming units per liter in the lungs
